Where two headings read alike, the source gives them in different places.
Legend:
[1] = biological target: T1, human adenosine A2A receptor (Homo sapiens, UniProt P29274); assay: Human adenosine A2A receptor [3H]-SCH-58261 binding assay
T1 construct: expressed in transfected cells; host or cells: CHO cells, Semliki Forest virus expression system; membrane preparation

[2] = biological target: T2, HA1 adenosine receptor (Homo sapiens, UniProt P30542); assay: Human adenosine A1 receptor affinity (Ki hA1); type: binding
T2 sequence (P30542 1-326): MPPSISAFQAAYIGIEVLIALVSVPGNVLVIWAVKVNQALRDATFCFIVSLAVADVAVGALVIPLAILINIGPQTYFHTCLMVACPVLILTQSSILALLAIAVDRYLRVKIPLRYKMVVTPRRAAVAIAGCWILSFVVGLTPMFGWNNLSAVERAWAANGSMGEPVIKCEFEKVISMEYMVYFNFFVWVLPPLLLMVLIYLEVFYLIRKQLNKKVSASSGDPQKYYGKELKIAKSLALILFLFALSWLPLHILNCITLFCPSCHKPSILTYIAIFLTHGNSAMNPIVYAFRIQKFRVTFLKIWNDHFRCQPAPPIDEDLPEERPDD

[3] = affinity to human adenosine A2A receptor, read-out: Ki HA2A
[4] = calculated ratio of the affinity to the HA1 receptor to the HA2a receptor
[5] = affinity to human adenosine A1 receptor
[6] = recombinant human A2A in CHO cell membranes, [3H]-SCH-58261, Cheng-Prussoff, read-out: Ki hA2A

T1 sequence (P29274 whole entry): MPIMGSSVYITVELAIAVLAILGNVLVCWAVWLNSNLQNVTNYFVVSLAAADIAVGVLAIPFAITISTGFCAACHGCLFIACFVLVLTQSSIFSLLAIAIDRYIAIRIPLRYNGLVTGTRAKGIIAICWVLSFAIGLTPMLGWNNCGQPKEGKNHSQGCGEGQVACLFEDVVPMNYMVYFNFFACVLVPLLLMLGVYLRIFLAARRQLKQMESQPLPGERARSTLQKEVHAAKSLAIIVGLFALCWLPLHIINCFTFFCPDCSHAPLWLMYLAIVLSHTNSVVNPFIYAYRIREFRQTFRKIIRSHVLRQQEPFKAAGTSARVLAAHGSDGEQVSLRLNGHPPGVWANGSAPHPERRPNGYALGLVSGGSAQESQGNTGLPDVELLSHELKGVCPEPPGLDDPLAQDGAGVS

Compound | Ki [1, 3] [nM] | selectivity (A1/A2a) [1, 4] | Ki [2, 5] [nM] | selectivity (A1/A2a) ([1]; ratio KiHA1 divided by KiHA2A) | Ki [1, 6] [nM] | Ki [2] [nM]
Nc1cc(C(=O)N2CCCC3CCCCC32)cc2nc(-c3ccc(Br)o3)nn12 (stereo not drawn) [Example 349, [5-Amino-2-(5-bromo-furan-2-yl)-[1,2,4]triazolo[1,5-a]pyridin-7-yl]-(octoahydro-quinolin-1-yl)-methanone] | 2.9 | 22.3 | 64.7 |  |  | 
Nc1cc(C(=O)N2CCC3CCCCC3C2)cc2nc(-c3ccc(Br)o3)nn12 (stereo not drawn) [Example 350] | 5.8 | 28.8 | 167 |  |  | 
CC(C)N(C(=O)c1cc(N)n2nc(-c3ccc(Br)o3)nc2c1)C1CCCCC1 [Example 351, 5-Amino-2-(5-bromo-furan-2-yl)-[1,2,4]triazolo[1,5-a]pyridine-7-carboxylic acid cyclohexyl-isopropyl-amide] | 2.9 | 26.7 | 77.3 |  |  | 
Nc1cc(C(=O)N2CCN(c3ccccc3)CC2)cc2nc(-c3ccc(Br)o3)nn12 [Example 353, [5-Amino-2-(5-bromo-furan-2-yl)-[1,2,4]triazolo[1,5-a]pyridin-7-yl]-(4-phenyl-piperazin-1-yl)-methanone] | 81.5 | 12.7 | 1040 |  |  | 
Nc1cc(C(=O)N2CCCCC2c2cccnc2)cc2nc(-c3ccc(Br)o3)nn12 (stereo not drawn) [Example 354, [5-Amino-2-(5-bromo-furan-2-yl)-[1,2,4]triazolo[1,5-a]pyridin-7-yl]-(3,4,5,6-tetrahydro-2H-[2,3′]bipyridinyl-1-yl)-methanone] | 2.9 | 15.7 | 45.5 |  |  | 
Nc1cc(C(=O)N2CCc3c([nH]c4ccccc34)C2)cc2nc(-c3ccc(Br)o3)nn12 [Example 355, [5-Amino-2-(5-bromo-furan-2-yl)-[1,2,4]triazolo[1,5-a]pyridin-7-yl]-(1,3,4,9-tetrahydro-b-carbolin-2-yl)-methanone] | 47 | 6.1 | 286 |  |  | 
C[C@@H]1CCC[C@H](C)N1C(=O)c1cc(N)n2nc(-c3nccs3)nc2c1 [Example 358, (5-Amino-2-thiazol-2-yl-[1,2,4]triazolo[1,5-a]pyridin-7-yl)-(cis-2,6-dimethyl-piperidin-1-yl)-methanone] | 74.7 | 23.0 | 1720 |  |  | 
C[C@@H]1CC[C@@H](C)N1C(=O)c1cc(N)n2nc(-c3ccc(Br)o3)nc2c1 [Example 359, [5-Amino-2-(5-bromo-furan-2-yl)-[1,2,4]triazolo[1,5-a]pyridin-7-yl]-[(2R,5R)-trans-2,5-dimethyl-pyrrolidin-1-yl]-methanone] | 7.3 | 128.0 | 934 |  |  | 
C[C@@H]1CN(C(=O)c2cc(N)n3nc(-c4ccc(Br)o4)nc3c2)C[C@H](C)O1 [Example 360, [5-Amino-2-(5-bromo-furan-2-yl)-[1,2,4]triazolo[1,5-a]pyridin-7-yl]-(cis-2,6-dimethyl-morpholin-4-yl)-methanone] | 7.7 | 54.9 | 422 |  |  | 
Nc1cc(C(=O)N2CCCC3CCCCC32)cc2nc(-c3nccs3)nn12 (stereo not drawn) [Example 379, (5-Amino-2-thiazol-2-yl-[1,2,4]triazolo[1,5-a]pyridin-7-yl)-(octahydro-quinolin-1-yl)-methanone] |  |  |  | 17.2 | 33.5 | 577
Nc1cc(C(=O)N2CCC3CCCCC3C2)cc2nc(-c3nccs3)nn12 (stereo not drawn) [Example 380, (5-Amino-2-thiazol-2-yl-[1,2,4]triazolo[1,5-a]pyridin-7-yl)-(octahydro-isoquinolin-2-yl)-methanone] |  |  |  | 24.8 | 76.9 | 1910
CCN(CC)C(=O)C1CCCN(C(=O)c2cc(N)n3nc(-c4nccs4)nc3c2)C1 (stereo not drawn) [Example 381, 1-(5-Amino-2-thiazol-2-yl-[1,2,4]triazolo[1,5-a]pyridine-7-carbonyl)-piperidine-3-carboxylic acid diethylamide] |  |  |  | 11.4 | 180 | 2050

Source: patent US6506772B1, “Substituted [1,2,4]triazolo[1,5a]pyridine derivatives with activity as adenosine receptor ligands” (Hoffmann-La Roche Inc., priority 2000, dated 2003)
